Target: 5-hydroxytryptamine receptor 6 (Homo sapiens, UniProt P50406)
Assay: Functional Assay: Functional assay using 5-HT6 receptors.

Sequence of 5-hydroxytryptamine receptor 6 (P50406 whole entry): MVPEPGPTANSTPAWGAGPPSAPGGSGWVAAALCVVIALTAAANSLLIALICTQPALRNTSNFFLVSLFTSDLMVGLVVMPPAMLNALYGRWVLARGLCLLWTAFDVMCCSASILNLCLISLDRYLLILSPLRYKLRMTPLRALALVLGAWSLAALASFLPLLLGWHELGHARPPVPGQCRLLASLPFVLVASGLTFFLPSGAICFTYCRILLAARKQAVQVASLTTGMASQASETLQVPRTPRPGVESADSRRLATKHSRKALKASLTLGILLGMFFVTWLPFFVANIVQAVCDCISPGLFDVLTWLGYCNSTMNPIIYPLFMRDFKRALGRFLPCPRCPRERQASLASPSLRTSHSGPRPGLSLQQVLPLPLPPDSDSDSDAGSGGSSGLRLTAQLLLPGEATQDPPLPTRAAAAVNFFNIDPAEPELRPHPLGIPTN

`CSc1nn2c(C)cc(C)nc2c1S(=O)(=O)c1ccc(F)c(Cl)c1` showed an IC50 of 46 nM.

From ChEMBL document CHEMBL3639354, “(EN) 3-sulfonyl-pyrazolo[1,5-a] pyrimidines / antagonists of serotonin 5-HT6 receptors, methods for the production and the use thereof” (2013)
